Bounds are passed on as bounds.

The source of these data is patent US4418068A, “Antiestrogenic and antiandrugenic benzothiophenes” (Eli Lilly and Company, priority 1981, dated 1983).

In assay [1] the test system is estrogenic response. As to conditions: Black and Goode 1980; cited from earlier work.
In assay [2] the test system is androgen-stimulated prostate growth. Description: Anti-Androgen Test, adult castrated male rats (ventral prostate weight). To be noted: Experiment A; androgen only, testosterone propionate 0.1 mg./day s.c., 7 days, castrated. It counts as in vivo. The procedure: The antiandrogenic property of the compounds was evaluated in the following tests, in which the compound of Example 3 was used again.
(§1) The animals used in this test were adult male rats having a body weight which averaged about 330 g. when the experiment ended. All of the animals to be used in the experiment were castrated by the scrotal route, and were held untreated for 3 days. On the fourth day, subcutaneous administration of 0.1 mg./day of an exogenous androgen, testosterone propionate, was begun, and was continued for seven consecutive days. An untreated control group of animals received injections of 0.1 ml./day of corn oil as a blank treatment. The compound of this invention was administered orally or subcutaneously to the treated animals in 0.1 ml. of corn oil, at the same time that the androgen was administered. The animals were sacrificed 24 hours after the last injection of testosterone propionate, the ventral prostate glands were removed and weighed, and the mean of the weights of each treatment group was reported. The table below reports the mean weights resulting from administration of various doses of the compound along with androgen.
Each treatment group of animals in this experiment consisted of seven to nine animals, except for the untreated control group, which contained twelve animals.

For assay [3] the test system is unchanged. Kind of assay: Anti-Androgen Test, immature male rats (ventral prostate weight). It is filed as in vivo. As to conditions: androgen only 20 mcg./day s.c. As to the method: as §1, with “reported.” for “reported. The table below reports the mean weights resulting from administration of various doses of the compound along with androgen.”
This experiment was carried out in the same manner as Experiment A above, except that the test animals were immature male rats, weighing about 120 g. each at sacrifice. Each treatment group consisted of six or seven animals. All treatments in this experiment were administered by subcutaneous injection. The amount of the androgen administered was only 20 mcg./day because of the small size of the animals.
This experiment was also conducted in immature rats having average body weight of about 115 g. when the experiment ended. In other respects, the experiment was as described under Experiment B above. The treatment groups consisted of ten animals each, except for the androgen only group, of 16 animals, and the 5 mg./kg. group, of nine animals.

For assay [4], the system named is estrogenic response. Description: Estrogenic Response Test, immature rats (uterine weight). It counts as in vivo, immature 40-45 g. female rats. As to conditions: s.c. As to the method:
(§2) The first test reported below is used to determine the estrogenic potency of compounds. It is well known that many compounds having antiestrogenic activity also, typically, have estrogenic activity. As has been explained, estrogenic activity is a liability in an antiestrogen, and thus it is important to identify antiestrogens having a minimum amount of estrogenic activity. This test was conducted with immature 40-45 g. female rats, immature 11-13 g. mice, and adult ovariectomized mice. The rats were tested in groups of six, and mice in groups of ten. All of the laboratory animals were from standardized strains and were equilibrated to the laboratory before the test started. Each test was begun by administering the test compound daily for three days, as a subcutaneous injection or by oral gavage, as indicated below in the reports of individual experiments. Untreated control animals were included in each experiment, along with animals to which estradiol was administered subcutaneously. The estradiol-treated animals provided positive controls, showing the physiological effect of a potent estrogen on the individual group of animals used in the experiment. […] The test animals were treated for three days and sacrificed on the fourth day, and the uteri were removed, freed of extraneous tissue, and blotted with paper towels. The uteri were weighed to the nearest 0.1 mg. The tables below report the results of representative experiments. The doses of estradiol and of the compound of this invention are given as the total of the three daily doses. The uterine weights are given, in mg., as the means of all of the organ weights of the animals in a group. Compounds are referred to by their example numbers above.

For assay [5], the system named is estrogenic response. Description: Estrogenic Response Test, immature mice (uterine weight). It is filed as in vivo, immature 11-13 g. mice. To be noted: Experiment D, s.c. The procedure: as §2
In assay [6] the test system is estrogenic response. Kind of assay: Estrogenic Response Test, mature ovariectomized mice (uterine weight). It counts as in vivo, adult ovariectomized mice. As to conditions: Experiment E, s.c. As to the method: as §2
Assay [7] relates to estrogenic response of estradiol. Kind of assay: Antiestrogenic Test, mature ovariectomized mice (uterine weight). As to conditions: Experiment A; estradiol alone 0.3 mcg., s.c. It is filed as in vivo, adult ovariectomized mice. The procedure:
(§3) This test was conducted with immature 40-45 g. female rats, immature 11-13 g. mice, and adult ovariectomized mice. The rats were tested in groups of six, and mice in groups of ten. All of the laboratory animals were from standardized strains and were equilibrated to the laboratory before the test started. Each test was begun by administering the test compound daily for three days, as a subcutaneous injection or by oral gavage, as indicated below in the reports of individual experiments.
(§4) The test animals were treated for three days and sacrificed on the fourth day, and the uteri were removed, freed of extraneous tissue, and blotted with paper towels. The uteri were weighed to the nearest 0.1 mg.
(§5) The uterine weights are given, in mg., as the means of all of the organ weights of the animals in a group. Compounds are referred to by their example numbers above.
(§6) The same standardized types of laboratory animals which were used in the experiments described above were also used in these experiments. […] Untreated control animals were used in each experiment. […] The dosage and sacrifice schedule, and the method of determining uterine weights and reporting data, were the same as the methods described above under Test 1.

For assay [8] the test system is unchanged. Description: Antiestrogenic Test, immature mice (uterine weight). It counts as in vivo. To be noted: Experiment B; estradiol alone 0.3 mcg., s.c. The procedure:
as §3, §4, §5, §6

Assay [9] has as its system estrogenic response. Description: Regression Test: reversal of established estrogenic response (uterine weight). It counts as in vivo, immature rats. As to conditions: estradiol alone 0.1 mcg./day s.c. The procedure: The following test was carried out to determine if the compounds of this invention could reverse an estrogenic response, when administration of the compound was started after the estrogenic response had become established.
The test animals were immature rats, and all administrations were by subcutaneous injection.
The mean uterine weights of these groups of animals, respectively, were 97.9, 97.3, 119.9 and 112.3 mg.
The animals were sacrificed on the fifth day and their mean uterine weight was 56.4 mg.
The animals were sacrificed on the seventh day and their mean uterine weight was 57.0 mg.

In assay [10] the test system is estrogenic response of estradiol. Description: Antiestrogenic Test, immature rats (uterine weight). It counts as in vivo. To be noted: Experiment I, 3 mg., s.c. + estradiol 0.3 mcg. The procedure:
as §3, §4, §5, §6

Assay [11] deals with DMBA-induced mammary tumors. Description: Tests Against DMBA-Induced mammary tumors. It counts as in vivo, adult female virgin rats. To be noted: Experiment D. The text has this: Mammary tumors were induced in adult female virgin rats by a single 20-mg. oral dose of 7,12-dimethylbenzanthracene. Within about six weeks, visible and palpable tumors were present in the mammary tissue of the rats, and the rats were allocated into treatment and control groups in such a way that each group contained animals having approximately the same size and number of tumors. The size of the tumors was estimated by measuring their cross-sectional area. […]
[…] The treated animals received 1 mg./kg. per day of 6-methoxy-2-(4-hydroxyphenyl)-3-[4-(2-piperidinoethoxy)benzoyl]benzo[b]thiophene, hydrochloride, as a subcutaneous injection in corn oil. The animals were not ovariectomized at the end of the experiment.

[12] abbreviates: 1 mg./kg. per day s.c., fifth week.

As to `O=C(c1ccc(OCCN2CCCC2)cc1)c1c(-c2ccc(O)cc2)sc2cc(O)ccc12` [6-hydroxy-2-(4-hydroxyphenyl)-3-[4-(2-pyrrolidinoethoxy)benzoyl]benzo[b]thiophene], in [1], the “antiestrogenic effectiveness vs tamoxifen or trioxifene” value was “considerably more effective as an antiestrogen” and the “estrogenicity vs tamoxifen or trioxifene” value is listed as “considerably less estrogenic”.
In the case of `CCC(=O)O[C@H]1CC[C@H]2[C@@H]3CCC4=CC(=O)CC[C@]4(C)[C@H]3CC[C@]12C` [Androgen, testosterone propionate, reference compound], the figures for the “Mean Prostate Weight” value in [2], in assay [3] (Experiment B) and in assay [3] (Experiment C) were 309 mg, 48.7 mg and 43.5 mg, respectively.
As to `C[C@]12CC[C@@H]3c4ccc(O)cc4CC[C@H]3[C@@H]1CC[C@@H]2O` [Estradiol, reference compound], the “Uterine weight” value was determined as 74.6 mg in assay [4] (Experiment A, total dose 0.3 mcg.); 56.8 mg in assay [4] (Experiment B, total dose 0.3 mcg.); 63.1 mg in assay [4] (Experiment C, total dose 0.3 mcg.); 33.3 mg in assay [5] (total dose 0.03 mcg.); 48.2 mg in assay [5] (total dose 0.09 mcg.); 50.3 mg in [5] (total dose 0.3 mcg.). Further, the “Uterine weight” value in assay [6] (total dose 0.03 mcg.) is 25.8 mg; in [6] (total dose 0.1 mcg.), 44.2 mg; in assay [6] (total dose 0.3 mcg.) it was 65.9 mg; in assay [7], 65.9 mg; in assay [8] it was 50.3 mg. In addition, the mean uterine weight in [9] (eight days) was determined as 112.3 mg; in assay [9] (four days), 97.3 mg; in assay [9] (six days) it was 119.9 mg; in assay [9] (three days) it was 97.9 mg.
As to `CC(=O)Oc1ccc(-c2sc3cc(OC(C)=O)ccc3c2C(=O)c2ccc(OCCN3CCCCC3)cc2)cc1` [Example 10, 6-acetoxy-2-(4-acetoxyphenyl)-3-[4-(2-piperidinoethoxy)benzoyl]benzo[b]thiophene], the “Uterine weight” value came out at 30.8 mg in [4] (Experiment C, total dose 3 mg.) and 32.2 mg in [10].
For `CCCCCCCCCCCC(=O)Oc1ccc(-c2sc3cc(OC(=O)CCCCCCCCCCC)ccc3c2C(=O)c2ccc(OCCN3CCCCC3)cc2)cc1` [Example 11, 6-dodecanoyloxy-2-(4-dodecanoyloxyphenyl)3-[4-(2-piperidinoethoxy)benzoyl]benzo[b]thiophene], the “Uterine weight” value in [4] (Experiment C, total dose 3 mg.) was determined as 37.1 mg; in assay [10], 40.0 mg.
As for `CCOC(=O)Oc1ccc(-c2sc3cc(OC(=O)OCC)ccc3c2C(=O)c2ccc(OCCN3CCCCC3)cc2)cc1` [Example 12, 6-ethoxycarbonyloxy-2-(4-ethoxycarbonyloxyphenyl)-3-[4-(2-piperidinoethoxy)benzoyl]benzo[b]thiophene], the “Uterine weight” value stood at 35.8 mg in assay [4] (Experiment C, total dose 3 mg.) and 31.8 mg in [10].
With `Cl.O=C(Oc1ccc(-c2sc3cc(OC(=O)c4ccccc4)ccc3c2C(=O)c2ccc(OCCN3CCCCC3)cc2)cc1)c1ccccc1` [Example 13, 6-benzoyloxy-2-(4-benzoyloxyphenyl)-3-[4-(2-piperidinoethoxy)benzoyl]benzo[b]thiophene, hydrochloride], the “Uterine weight” value in assay [4] (Experiment C, total dose 3 mg.) is given as 39.6 mg; in assay [10], 41.1 mg.
In the case of `COc1ccc(-c2sc3cc(OC)ccc3c2C(=O)c2ccc(OCCN3CCCCC3)cc2)cc1.Cl` [Example 14, 6-methoxy-2-(4-methoxyphenyl)-3-[4-(2-piperidinoethoxy)benzoyl]benzo[b]thiophene, hydrochloride], the “Uterine weight” value in assay [4] (Experiment C, total dose 3 mg.) is on record as 35.1 mg; in assay [10] it was 37.5 mg.
Take `COc1ccc2c(C(=O)c3ccc(OCCN4CCCCC4)cc3)c(-c3ccc(O)cc3)sc2c1.Cl` [Example 19, 6-Methoxy-2-(4-hydroxyphenyl)-3-[4-(2-piperidinoethoxy)benzoyl]benzo[b]thiophene, hydrochloride]: the “animals with completely regressed tumors” value in [11] (1 mg./kg. per day s.c. in corn oil, fourth week) was “three of the eight treated animals had completely regressed”. Besides, in assay [11] (setting [12]), the completely regressed animals result is recorded as “three completely regressed animals” and the “tumor area, upper end of range (single tumor)” value is reported as not above 1974 sq. mm. Further, the “average tumor area, other seven treated animals” value in assay [11] (1 mg./kg. per day s.c., fifth week, animal with burst tumors excluded) is given as 398 square millimeters. In addition, the “tumor area of one animal (largest)” value in assay [11] (1 mg./kg. per day s.c., four weeks) turned out to be 3764 sq. mm. The “average tumor area of the other seven animals” value in [11] (1 mg./kg. per day s.c., four weeks, animal with 3764 sq. mm. ignored) was found to be 254 sq. mm. Besides, the “average total tumor area of the treated group” value in [11] (1 mg./kg. per day s.c., four weeks, eight animals) is recorded as 692 square millimeters.
